Reference: paper PMC12114796, “Self-Assembled Cannabigerol-Based Nanoparticles: Design, Synthesis, and Antiproliferative Activity” (Pharmaceutics, 2025)
Where two headings read alike, the source gives them in different places.

Assays:
[1] = test system: HT-29 (human colorectal adenocarcinoma) cells; test: Cell viability, trypan blue dye exclusion assay (antiproliferative activity); assay type: cell-based; conditions: HT-29, 72 h
Protocol: (§1) The cell lines used in our study were purchased from ATCC (American Type Culture Collection). […] LN229 (human glioblastoma) cells were cultured in DMEM (D2902, Merck) supplemented with 3.5 g/L glucose and 5% FCS. NaHCO3 (S5761, Merck), as indicated in the manufacturer’s instructions, 100 U/mL penicillin, 100 μg/mL streptomycin, and 0.25 μg/mL amphotericin B (A5955, Merck) were added to the culture media. The cells were maintained at 37 °C in a humidified atmosphere incubator containing 5% carbon dioxide in air.
(§2) The cell viability was analyzed by a trypan blue dye exclusion assay. Briefly, 3–4 × 10^4 cells were seeded in each well of a 24-well cell culture plate and treated with test drugs or NPs at concentrations ranging from 1 to 30 nM and from 0.01 to 20 μM, respectively, after 24 of growth in standard conditions. After 72 h from the treatment, the cells were detached by trypsinization and counted by optical microscope.

[2] = test system: LN229 (human glioblastoma) cells; test: as above; assay type: cell-based
Protocol: as §1, §2

[3] = test system: MSTO-211H (human biphasic mesothelioma) cells; test: as above; assay type: cell-based; conditions: 72 h
Protocol: as §1, §2

[4] = test system: MeT-5A (human mesothelium, non-tumorigenic) cells; test: as above; assay type: cell-based; conditions: 72 h
Protocol: as §1, §2

[5] = test system: LN229, HT-29, MSTO-211H and MeT-5A cells; test: Antiproliferative activity compared across the cell line panel; assay type: cell-based; conditions: Homo sapiens; all four cell lines, 72 h; read-out: GI50 values (range over the cell lines)
Protocol: The cell lines used in our study were purchased from ATCC (American Type Culture Collection). Specifically, we used LN-229 (ATCC CRL-2611), HT-29 (ATCC HTB-38), and MSTO-211H (ATCC CRL-2081). MeT-5A (ATCC CRL-9444), MSTO-211H (human biphasic mesothelioma), and Met-5A (human mesothelium) cells were grown in RPMI 1640 (R6504, Merck) supplemented with 2.38 g/L Hepes (H3375, Merck, St. Louis, MO, USA), 0.11 g/L pyruvate sodium (P5280, Merck), 2.5 g/L glucose (G6152, Merck), and 10% heat-inactivated fetal calf serum (FCS, F7524, Merck). HT-29 (human colorectal adenocarcinoma) cells were grown in RPMI 1640 (R6504, Merck) supplemented with 10% heat-inactivated FCS. LN229 (human glioblastoma) cells were cultured in DMEM (D2902, Merck) supplemented with 3.5 g/L glucose and 5% FCS. NaHCO3 (S5761, Merck), as indicated in the manufacturer’s instructions, 100 U/mL penicillin, 100 μg/mL streptomycin, and 0.25 μg/mL amphotericin B (A5955, Merck) were added to the culture media. The cells were maintained at 37 °C in a humidified atmosphere incubator containing 5% carbon dioxide in air.
The cell viability was analyzed by a trypan blue dye exclusion assay. […] After 72 h from the treatment, the cells were detached by trypsinization and counted by optical microscope. […]

[6] = test system: microtubules in LN229 cells; test: Confocal microscopy of microtubule status (anti-β-tubulin staining); assay type: cell-based, human; conditions: LN229, 4 h; Desa 3 µM, Np1b 200 µM, PTX and Np2b at indicated concentrations
Protocol: LN229 cells (3 × 10^4) were seeded in 4-well cell culture chamber on a glass slide and cultured up to 50–60% confluence. […] After incubation, the cells were gently washed twice with PBS, fixed with 4% formaldehyde at room temperature for 15 min, washed twice with PBS, and permeabilized with 0.1% Triton X-100 (T8787, Merck) in PBS for 5 min in the dark. Again, the cells were washed twice with PBS and incubated for 30 min in the dark with 7% FCS in PBS. […] After washing twice with PBS, 0.001 mg/mL DAPI (MBD0015, Merck) was added for 15 min, then the cells were washed with PBS, and the coverslips were mounted on glass slides using Fluoroshield^TM (F6182, Merck). […] Particle counting and size distribution were estimated using the built-in Analyze Particles plugin in Image J (Fiji).

LN229 cells = test: Cell cycle analysis by flow cytometry (propidium iodide); assay type: cell-based, human; conditions: LN229, 48 h
Protocol: A total of 2 × 10^5 LN229 cells were seeded in Petri culture plates, left to grow for 24 h in standard conditions, and then treated with CPT and Np3b at the indicated concentrations. After 48 h, the cells were harvested, centrifuged, combined with ice-cold 70% w/v ethanol, and left at 4 °C for 20 min. Then, the cells were centrifuged, and the pellet was resuspended in a final volume of 300 μL PBS containing 0.1 mg mL^−1 RNAse (R6513, Merck) and […] propidium iodide (P4170, Merck). The DNA content was quantified by a BD FACSAria III flow cytometer (BD Life Sciences) and the data were analyzed by BD FACSDiva software (version 9.0). Statistical analysis was performed by Student’s t-test.

SMILES	GI50 [1]	GI50 ([2]; LN-229, 72 h)	GI50 [3]	GI50 [4]	GI50 [5]	effect on microtubule network [6]	GI50 ([1]; mean ± SD, read-out: GI50)	GI50 ([2]; LN-229, LN229, 72 h, mean ± SD, read-out: GI50)	GI50 ([3]; mean ± SD, read-out: GI50)	GI50 ([4]; mean ± SD, read-out: GI50)	cells in G2/M phase (LN229 cells; 20 nM CPT (control 11.7%))	cells in G1 phase (LN229 cells; 20 nM CPT (control 69.4%))
CCCCCc1cc(O)c(C/C=C(\C)CCC=C(C)C)c(O)c1 [CBG, Cannabigerol]	9700 ± 200 nM	5900 ± 1300 nM	16000 ± 2000 nM	16000 ± 2000 nM	5.9 to 16 µM	–	–	–	–	–	–	–
CC(=O)O[C@H]1C(=O)[C@@]2(C)[C@H]([C@H](OC(=O)c3ccccc3)[C@]3(O)C[C@H](OC(=O)[C@H](O)[C@@H](NC(=O)c4ccccc4)c4ccccc4)C(C)=C1C3(C)C)[C@]1(OC(C)=O)CO[C@@H]1C[C@@H]2O [PTX, paclitaxel]	2.8 ± 0.2 nM	4.2 ± 0.7 nM	3.3 ± 0.6 nM	4.4 ± 0.1 nM	–	polymerizing effect	–	–	–	–	–	–
CC[C@@]1(O)C(=O)OCc2c1cc1n(c2=O)Cc2cc3ccccc3nc2-1 [CPT, camptothecin]	–	–	–	–	–	–	7.9 ± 0.8 nM	7.9 ± 0.1 nM	3.3 ± 1 nM	7.8 ± 0.2 nM	33.4%	49.4%
